PubChem BioAssay AID256 (DTP/NCI, 2004)
Values joined by “and” are separate entries in the source; they are usually repeats but may differ in a detail not shown here. Identical values can stand only once. Inconclusive results and toxic doses are left out.

System: CD2F1 mice, L1210 leukemia ip, survival T/C
Assay: NCI In Vivo Anticancer Drug Screen. Data for tumor model L1210 Leukemia (intraperitoneal) in CD2F1 (CDF1) mice
Settings: higher = longer survival
Method in brief: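 Vehicle-treated tumor-bearing mice served as controls (C) for compound-treated mice (T). Reported figure is T divided by C.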

[1] = endpoint: mean survival time, dose: 100.0 mg/kg/injection, schedule: Q01DX009 (ip), vehicle: other
[2] = endpoint: mean survival time, dose: 200.0 mg/kg/injection, schedule: Q01DX009 (ip), vehicle: other
[3] = endpoint: mean survival time, dose: 100.0 mg/kg/injection, schedule: Q04DX003 (ip), vehicle: saline with Tween-80
[4] = endpoint: mean survival time, dose: 200.0 mg/kg/injection, schedule: Q04DX003 (ip), vehicle: saline with Tween-80
[5] = endpoint: mean survival time, dose: 400.0 mg/kg/injection, schedule: Q04DX003 (ip), vehicle: saline with Tween-80
[6] = endpoint: mean survival time, dose: 100.0 mg/kg/injection, schedule: Q01DX009 (ip), vehicle: saline with Tween-80
[7] = endpoint: mean survival time, dose: 200.0 mg/kg/injection, schedule: Q01DX009 (ip), vehicle: saline with Tween-80
[8] = endpoint: mean survival time, dose: 400.0 mg/kg/injection, schedule: Q01DX009 (ip), vehicle: saline with Tween-80
[9] = endpoint: mean survival time, dose: 50.0 mg/kg/injection, schedule: Q01DX009 (ip), vehicle: saline
[10] = endpoint: mean survival time, dose: 50.0 mg/kg/injection, schedule: Q04DX003 (ip), vehicle: saline
[11] = endpoint: mean survival time, dose: 100.0 mg/kg/injection, schedule: Q04DX003 (ip), vehicle: saline
[12] = endpoint: mean survival time, dose: 200.0 mg/kg/injection, schedule: Q04DX003 (ip), vehicle: saline
[13] = endpoint: mean survival time, dose: 50.0 mg/kg/injection, schedule: Q01DX009 (ip), vehicle: other
[14] = endpoint: mean survival time, dose: 25.0 mg/kg/injection, schedule: Q01DX009 (ip), vehicle: saline with Tween-80
[15] = endpoint: mean survival time, dose: 50.0 mg/kg/injection, schedule: Q01DX009 (ip), vehicle: saline with Tween-80
[16] = endpoint: mean survival time, dose: 100.0 mg/kg/injection, schedule: Q01DX001 (ip), vehicle: saline with Tween-80
[17] = endpoint: mean survival time, dose: 200.0 mg/kg/injection, schedule: Q01DX001 (ip), vehicle: saline with Tween-80
[18] = endpoint: mean survival time, dose: 400.0 mg/kg/injection, schedule: Q01DX001 (ip), vehicle: saline with Tween-80

## COC(=O)C1CN1C1=C(C)C(=O)C2=C(C1=O)C(COC(N)=O)C1(OC)C3NC3CN21 (stereo not drawn)
endpoint: median survival time, dose: 1.5 mg/kg/injection, schedule: Q01DX001 (ip), vehicle: water
  T/C: 104 % of control
endpoint: median survival time, dose: 3.0 mg/kg/injection, schedule: Q01DX001 (ip), vehicle: water
  T/C: 103 % of control
endpoint: median survival time, dose: 6.0 mg/kg/injection, schedule: Q01DX001 (ip), vehicle: water
  T/C: 123 % of control
endpoint: median survival time, dose: 12.0 mg/kg/injection, schedule: Q01DX001 (ip), vehicle: water
  T/C: 123 % of control
endpoint: median survival time, dose: 24.0 mg/kg/injection, schedule: Q01DX001 (ip), vehicle: water
  T/C: 121 % of control and 124 % of control

## Cc1[nH]nc2c1CCCC2
[1]
  T/C: 101 % of control
[2]
  T/C: 97 % of control

## OCC(O)C1OC(SCc2ccccc2)C(O)C(O)C1O (stereo not drawn)
[3]
  T/C: 91 % of control
[4]
  T/C: 100 % of control
[5]
  T/C: 107 % of control

## NC(=O)c1ccccc1N=NN(CCF)CCF
endpoint: mean survival time, dose: 5.3 mg/kg/injection, schedule: Q04DX003 (ip), vehicle: saline with Tween-80
  T/C: 103 % of control
endpoint: mean survival time, dose: 8.0 mg/kg/injection, schedule: Q04DX003 (ip), vehicle: saline with Tween-80
  T/C: 100 % of control
endpoint: mean survival time, dose: 12.0 mg/kg/injection, schedule: Q04DX003 (ip), vehicle: saline with Tween-80
  T/C: 105 % of control

## O=C(O)c1cccc(C(=O)O)c1
[3]
  T/C: 95 % of control
[4]
  T/C: 102 % of control
[5]
  T/C: 102 % of control

## C[C@H](C[P+](c1ccccc1)(c1ccccc1)c1ccccc1)[C@](OC(=O)c1ccccc1)(C(=O)c1ccccc1)c1ccccc1
endpoint: mean survival time, dose: 1.25 mg/kg/injection, schedule: Q01DX009 (ip), vehicle: saline with Tween-80
  T/C: 101 % of control
endpoint: mean survival time, dose: 2.5 mg/kg/injection, schedule: Q01DX009 (ip), vehicle: saline with Tween-80
  T/C: 98 % of control
endpoint: mean survival time, dose: 5.0 mg/kg/injection, schedule: Q01DX001 (ip), vehicle: saline with Tween-80
  T/C: 103 % of control
endpoint: mean survival time, dose: 5.0 mg/kg/injection, schedule: Q01DX009 (ip), vehicle: saline with Tween-80
  T/C: 98 % of control

## O=C(C1=CCCCC1)c1ccc(-c2ccccc2)cc1
[6]
  T/C: 102 % of control
[3]
  T/C: 95 % of control
[7]
  T/C: 91 % of control
[4]
  T/C: 95 % of control
[8]
  T/C: 96 % of control
[5]
  T/C: 93 % of control

## O=C(CNC(=O)Nc1cccc(Cl)c1)N/N=C/c1ccccc1Cl
[6]
  T/C: 106 % of control
[7]
  T/C: 109 % of control
[8]
  T/C: 112 % of control

## CC(=O)c1cccc(NS(=O)(=O)c2ccc(C)cc2)c1
[3]
  T/C: 97 % of control
[4]
  T/C: 99 % of control
[5]
  T/C: 99 % of control

## CC1C2CCC(C2)C1CO (stereo not drawn)
[9]
  T/C: 102 % of control
endpoint: mean survival time, dose: 100.0 mg/kg/injection, schedule: Q01DX009 (ip), vehicle: saline
  T/C: 98 % of control
endpoint: mean survival time, dose: 200.0 mg/kg/injection, schedule: Q01DX009 (ip), vehicle: saline
  T/C: 104 % of control

## CC(C)(C)C1CCC(O)(CSc2ccccc2)CC1 (stereo not drawn)
[3]
  T/C: 97 % of control
[4]
  T/C: 92 % of control
[5]
  T/C: 92 % of control

## CNNCCC(=O)NC(C)C
endpoint: mean survival time, dose: 25.0 mg/kg/injection, schedule: Q04DX003 (ip), vehicle: saline
  T/C: 106 % of control
[10]
  T/C: 103 % of control
[11]
  T/C: 101 % of control
[12]
  T/C: 91 % of control

## O=C1CCCCCN1C(=O)c1ccccc1
[13]
  T/C: 105 % of control
[1]
  T/C: 97 % of control
[2]
  T/C: 105 % of control

## CCc1nc2cc(C)c(C)cc2[nH]1
endpoint: mean survival time, dose: 12.5 mg/kg/injection, schedule: Q01DX009 (ip), vehicle: saline with Tween-80
  T/C: 97 % of control
[14]
  T/C: 100 % of control
endpoint: mean survival time, dose: 25.0 mg/kg/injection, schedule: Q04DX003 (ip), vehicle: saline with Tween-80
  T/C: 89 % of control
[15]
  T/C: 95 % of control
endpoint: mean survival time, dose: 50.0 mg/kg/injection, schedule: Q04DX003 (ip), vehicle: saline with Tween-80
  T/C: 89 % of control
[3]
  T/C: 93 % of control

## Fc1cc(F)c(F)c(-c2c(F)c(F)cc(F)c2F)c1F
[15]
  T/C: 103 % of control
[6]
  T/C: 103 % of control
[7]
  T/C: 96 % of control

## COc1nc(NC2OCC(O)C(O)C2O)c(Br)c(=O)n1C (stereo not drawn)
endpoint: median survival time, dose: 12.5 mg/kg/injection, schedule: Q01DX005 (ip), vehicle: saline with Tween-80
  T/C: 100 % of control
endpoint: median survival time, dose: 25.0 mg/kg/injection, schedule: Q01DX005 (ip), vehicle: saline with Tween-80
  T/C: 101 % of control
endpoint: median survival time, dose: 50.0 mg/kg/injection, schedule: Q01DX005 (ip), vehicle: saline with Tween-80
  T/C: 101 % of control
endpoint: median survival time, dose: 100.0 mg/kg/injection, schedule: Q01DX005 (ip), vehicle: saline with Tween-80
  T/C: 101 % of control
endpoint: median survival time, dose: 200.0 mg/kg/injection, schedule: Q01DX005 (ip), vehicle: saline with Tween-80
  T/C: 101 % of control

## CCN(CC)CCSC(=O)C(O)(c1ccccc1)c1cccc(C)c1 (stereo not drawn)
endpoint: mean survival time, dose: 75.0 mg/kg/injection, schedule: Q01DX001 (ip), vehicle: saline
  T/C: 105 % of control

## COc1c(CNC(=O)CCl)cc2[nH]c(C)cc2c1CNC(=O)CCl
endpoint: mean survival time, dose: 12.5 mg/kg/injection, schedule: Q01DX009 (ip), vehicle: Klucel (hydroxypropylcellulose) (HPC)
  T/C: 98 % of control
endpoint: mean survival time, dose: 25.0 mg/kg/injection, schedule: Q01DX009 (ip), vehicle: Klucel (hydroxypropylcellulose) (HPC)
  T/C: 98 % of control and 101 % of control
endpoint: mean survival time, dose: 50.0 mg/kg/injection, schedule: Q01DX009 (ip), vehicle: Klucel (hydroxypropylcellulose) (HPC)
  T/C: 98 % of control and 103 % of control
endpoint: mean survival time, dose: 100.0 mg/kg/injection, schedule: Q01DX009 (ip), vehicle: Klucel (hydroxypropylcellulose) (HPC)
  T/C: 97 % of control and 102 % of control
endpoint: mean survival time, dose: 200.0 mg/kg/injection, schedule: Q01DX009 (ip), vehicle: Klucel (hydroxypropylcellulose) (HPC)
  T/C: 93 % of control and 104 % of control
endpoint: mean survival time, dose: 400.0 mg/kg/injection, schedule: Q01DX009 (ip), vehicle: Klucel (hydroxypropylcellulose) (HPC)
  T/C: 95 % of control

## O=C(c1ccc(-c2ccccc2)cc1)c1no[n+]([O-])c1C(=O)c1ccc(-c2ccccc2)cc1
[6]
  T/C: 96 % of control
[3]
  T/C: 86 % of control
[7]
  T/C: 93 % of control
[4]
  T/C: 98 % of control
[5]
  T/C: 88 % of control

## Cc1ccccc1S(=O)(=O)/C(=C(/I)c1ccccc1)c1ccccc1
[10]
  T/C: 94 % of control
[11]
  T/C: 102 % of control
[12]
  T/C: 98 % of control

## CN(C(=O)CCC(=O)N(C)c1ccccc1)c1ccccc1
[16]
  T/C: 103 % of control
[17]
  T/C: 92 % of control
[18]
  T/C: 92 % of control

## NNc1nnc(Cl)cc1N
[3]
  T/C: 109 % of control

## CCOC(=O)NC(=S)Nc1ncn[nH]1
endpoint: mean survival time, dose: 25.0 mg/kg/injection, schedule: Q01DX001 (ip), vehicle: carboxymethylcellulose (CMC)
  T/C: 102 % of control
endpoint: mean survival time, dose: 50.0 mg/kg/injection, schedule: Q01DX001 (ip), vehicle: carboxymethylcellulose (CMC)
  T/C: 97 % of control
endpoint: mean survival time, dose: 100.0 mg/kg/injection, schedule: Q01DX001 (ip), vehicle: carboxymethylcellulose (CMC)
  T/C: 97 % of control
endpoint: mean survival time, dose: 200.0 mg/kg/injection, schedule: Q01DX001 (ip), vehicle: carboxymethylcellulose (CMC)
  T/C: 93 % of control

## C=CCN(CC=C)C(=O)NCC(=O)OCC
[15]
  T/C: 101 % of control
[6]
  T/C: 95 % of control
[7]
  T/C: 97 % of control

## CCOC(=O)Cc1ccncc1CC
[16]
  T/C: 94 % of control
[6]
  T/C: 97 % of control
[17]
  T/C: 91 % of control
[7]
  T/C: 104 % of control
[18]
  T/C: 100 % of control
[8]
  T/C: 101 % of control

## Cc1ccccc1OCCO
[13]
  T/C: 100 % of control
[1]
  T/C: 116 % of control and 100 % of control
[2]
  T/C: 102 % of control and 103 % of control
endpoint: mean survival time, dose: 400.0 mg/kg/injection, schedule: Q01DX009 (ip), vehicle: other
  T/C: 100 % of control

## NN1C(=O)Cc2ccccc2C1=O
[6]
  T/C: 103 % of control
[7]
  T/C: 109 % of control
[8]
  T/C: 105 % of control

## COc1cc2cc[n+]3c(C)c4cc5c(cc4cc3c2cc1OC)OCO5 (tested in a mixture with another compound)
[14]
  T/C: 120 % of control
endpoint: mean survival time, dose: 37.5 mg/kg/injection, schedule: Q01DX009 (ip), vehicle: saline with Tween-80
  T/C: 94 % of control
endpoint: mean survival time, dose: 37.5 mg/kg/injection, schedule: Q01DX009 (ip), vehicle: saline
  T/C: 108 % of control
[9]
  T/C: 106 % of control
[11]
  T/C: 121 % of control
[12]
  T/C: 93 % of control

## CCCC(=O)OCC1OC(n2ccc(O)cc2=O)C(O)C1O (stereo not drawn)
endpoint: median survival time, dose: 44.0 mg/kg/injection, schedule: Q01DX009 (ip), vehicle: saline + Tween-80 + alcohol
  T/C: 171 % of control
endpoint: median survival time, dose: 67.0 mg/kg/injection, schedule: Q01DX009 (ip), vehicle: saline + Tween-80 + alcohol
  T/C: 174 % of control
endpoint: median survival time, dose: 100.0 mg/kg/injection, schedule: Q01DX009 (ip), vehicle: saline + Tween-80 + alcohol
  T/C: 168 % of control
endpoint: median survival time, dose: 150.0 mg/kg/injection, schedule: Q01DX009 (ip), vehicle: saline + Tween-80 + alcohol
  T/C: 162 % of control
